Measurements as given in PubChem BioAssay (NCI).
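Step 1: Grow cells in 96-well plates. Step 2: Expose to compound for 48 hours at 5 concentrations. Step 3: Interpolate endpoints linearly; if unreached, use highest concentration. TGI marks complete inhibition of growth.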

Assays:
Experiment in all cases: NCI tumour cell line growth inhibition, 48 h
HCT-116 colon = system: HCT-116 colon
HCT-15 colon = system: HCT-15 colon
HOP-62 NSCLC = system: HOP-62 NSCLC
HS 578T breast = system: HS 578T breast
NCI-H460 lung = system: NCI-H460 lung
NCI-H522 lung = system: NCI-H522 lung
OVCAR-3 ovarian = system: OVCAR-3 ovarian
PC-3 prostate = system: PC-3 prostate
SF-268 CNS = system: SF-268 CNS
UO-31 renal = system: UO-31 renal

| Compound | TGI (HCT-116 colon) [µM] | TGI (HCT-15 colon) [µM] | TGI (HOP-62 NSCLC) [µM] | TGI (HS 578T breast) [µM] | TGI (NCI-H460 lung) [µM] | TGI (NCI-H522 lung) [µM] | TGI (OVCAR-3 ovarian) [µM] | TGI (PC-3 prostate) [µM] | TGI (SF-268 CNS) [µM] | TGI (UO-31 renal) [µM] |
| --- | --- | --- | --- | --- | --- | --- | --- | --- | --- | --- |
| c1csc(-c2nnc(C34CC5CC(CC(C5)C3)C4)o2)c1 | > 100 | > 100 | > 100 | 74.6 | > 100 | > 100 | 38.5 | > 100 | > 100 | 15.6 |
| Cc1ccc(C2(c3ccc(C)c(O)c3C)CCN(C)CC2)c(C)c1O | > 100 | > 100 | > 100 | > 100 | > 100 | > 100 | > 100 | > 100 | > 100 | > 100 |
| C=C1[C@H](OCC(C)C)[C@@H](OC(=O)C(C)CC)[C@@H](O)C(C)(C)/C=C/[C@H](C)C(=O)[C@@]2(O)C[C@H](C)[C@H](O)[C@@H]2[C@H]1OC(=O)C(C)CC (stereo not given in full) | > 20 | > 20 | > 10.5 | 10.6 | 8.18 | > 20 | > 13.7 | > 14.8 | > 20 | > 5.12 |
| COc1cccc(/C=N/n2c(Cc3ccc(Cl)cc3)n[nH]c2=O)c1 | > 100 | > 100 | 43.9 | 72.7 | > 100 | 50.6 | > 100 | > 100 | 34.9 | > 100 |
| CCOC(=O)C1=CN(C(=O)c2ccccc2)CCC1Cc1ccccc1 (stereo not given) | 84.4 | > 100 | > 100 | 92.8 | 44.9 | 40.5 | > 100 | 78.1 | > 100 | 77.9 |
| O=C1OC(C(O)C(O)C(O)CO)C(O)C1O (stereo not given) | > 100 | > 100 | > 100 | > 100 | > 100 | > 100 | > 100 | > 100 | > 100 | > 100 |
| C1=C[C@]2(CCC13OCCO3)COc1ccccc12 | > 100 | > 100 | > 100 | – | > 100 | – | > 100 | > 100 | – | > 100 |
| O=C1/C(=C2\SCC(=O)N2c2ccccc2)SC(=S)N1c1ccccc1 | > 100 | > 100 | – | > 100 | > 100 | – | 83.2 | > 100 | > 100 | – |
| O=[N+]([O-])c1cc(Cl)ccc1S(=O)(=O)c1cc(Cl)cc2c1NCCC2 | > 100 | > 100 | > 100 | > 100 | > 100 | – | > 100 | > 100 | > 100 | > 100 |
| CCCN1C(=O)/C(=C(/O)C(=O)OCC)C(c2ccc(OC)c(OC)c2)C1=O (stereo not given) | > 100 | > 100 | > 100 | – | > 31.6 | > 100 | > 66.1 | – | > 100 | > 100 |
| CC12CCC(C1)C(C)(C)C2OC(=O)c1ccccc1C(=O)O (stereo not given) | > 100 | > 100 | > 100 | > 100 | > 100 | > 100 | – | > 100 | > 100 | > 100 |
| O=C(NNCc1ccccc1O)c1ccccc1O | > 100 | > 100 | > 100 | – | – | > 100 | 6.29 | > 100 | – | 16.5 |
| CN1N(c2ccccc2)C(=O)C2=NC=C(C#N)C(=N)C21C (stereo not given) | > 100 | > 100 | – | – | > 100 | > 100 | > 100 | > 100 | – | > 100 |
| CC(CC(C)(C)[N+](C)(C)C)[N+](C)(C)C (stereo not given) | > 100 | > 100 | > 100 | – | > 100 | > 100 | > 100 | > 100 | > 100 | > 100 |
| COc1cc([C@@H]2c3cc4c(cc3[C@@H](Nc3ccc(NC(=O)c5cc(NC(=O)c6cc([N+](=O)[O-])cn6C)cn5C)cc3)[C@H]3COC(=O)[C@H]23)OCO4)cc(OC)c1O | 33.3 | > 55.2 | 14.4 | > 100 | 13.2 | > 100 | > 100 | – | > 79.7 | > 53 |
| Cc1ccc(Nc2ccc(Nc3ccc(C)cc3S(=O)(=O)O)c3c2C(=O)c2ccccc2C3=O)c(S(=O)(=O)O)c1 | > 100 | > 100 | > 100 | – | > 100 | > 100 | > 100 | – | > 100 | > 100 |
| c1ccc(-c2nc3ccccc3n3nnnc23)cc1 | > 100 | > 100 | > 100 | – | > 100 | – | > 100 | > 100 | > 100 | 1.57 |
| CC(=O)OC1C(O)C(C)OC(OC(=O)C2CCC3C(C2)OC2(CC(OC(=O)/C=C/c4ccccc4)C(C)CO2)C32CO2)C1OC1OC(C)C(O)C(O)C1O (stereo not given) | 0.709 | 39.2 | 0.223 | – | 0.236 | 0.0487 | 0.0917 | – | 0.15 | 33.2 |
| CCc1cc2c(oc3c4ccccc4ccc23)c(=O)[nH]1 | > 10 | – | – | > 10 | > 10 | > 10 | > 10 | > 10 | > 10 | > 10 |
| O=C1C=C(NCCc2cc(Br)c(O)c(Br)c2)C(=O)c2[nH]cnc21 | 43.9 | > 100 | > 100 | – | > 100 | 87.4 | > 100 | > 100 | > 100 | > 100 |
| O=C(NC(CO)CO)c1ccc2cc(C(=O)N3CC(CCl)c4ccc([N+](=O)[O-])cc43)[nH]c2c1 (stereo not given) | > 100 | > 100 | > 100 | > 100 | > 100 | – | > 100 | > 100 | > 100 | > 100 |
| CCCC1C(C#N)(C#N)C(C#N)=C(N)C1(C)C(C)=O (stereo not given) | > 100 | > 100 | – | > 100 | – | > 100 | – | > 100 | > 100 | > 100 |
| CCOC(=O)/C=C1/Nc2cc(F)c(F)cc2NC1=O | > 100 | > 100 | > 100 | > 100 | > 100 | – | > 100 | > 100 | > 100 | > 100 |
| CCCN(CCC)c1c([N+](=O)[O-])cc(C(=O)N(C)C)cc1[N+](=O)[O-] | > 100 | > 100 | – | – | > 100 | > 100 | > 100 | – | > 100 | > 100 |
